Where two headings read alike, the source gives them in different places.
Key:
zebrafish embryos = assay: Zebrafish developmental safety assay; conditions: 4 days
5-HT2B = target: T1, 5-HT2B (Homo sapiens, UniProt P41595); assay: Cerep binding assay; conditions: agonist radioligand, mean, read-out: % inhibition of control specific binding
T1 construct: Cerep (Eurofins, France)

[1] = Monkey PK (r15 PO 1, r16 IV 1 mg/kg); assay type: in vivo
[2] = Plasma protein binding, equilibrium dialysis; conditions: dog
PPARγ = target: T2, PPARγ (Homo sapiens, UniProt P37231); assay: Cerep binding assay; conditions: agonist radioligand, mean
T2 construct: Cerep (Eurofins, France)

C. hominis TU502 isolate = assay: Calibr high-content imaging Cryptosporidium panel; assay type: cell-based, Cryptosporidium hominis; conditions: Cryptosporidium hominis
A3 = target: T3, A3 (Homo sapiens, UniProt P0DMS8); assay: Cerep binding assay; set-up: Cerep (Eurofins, France); conditions: agonist radioligand, mean, read-out: % inhibition of control specific binding
T3 sequence (P0DMS8 1-318): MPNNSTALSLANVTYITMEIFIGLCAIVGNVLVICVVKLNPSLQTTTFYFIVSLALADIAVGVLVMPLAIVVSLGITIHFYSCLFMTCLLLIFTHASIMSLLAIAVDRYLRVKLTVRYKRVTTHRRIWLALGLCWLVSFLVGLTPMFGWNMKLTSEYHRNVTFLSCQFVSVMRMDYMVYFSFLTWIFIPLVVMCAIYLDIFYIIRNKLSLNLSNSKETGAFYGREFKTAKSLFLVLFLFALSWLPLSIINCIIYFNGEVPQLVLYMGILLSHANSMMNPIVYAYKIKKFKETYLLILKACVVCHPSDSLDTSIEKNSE

[3] = Mouse plasma, brain and GI exposure PK, Balb/c, 30 mg/kg PO; conditions: 6 h, after BKI-1708
CYP2B6 = target: T4, CYP2B6 (Homo sapiens, UniProt P20813); assay: CYP reaction phenotyping, recombinant supersomes
T4 sequence (P20813 1-491): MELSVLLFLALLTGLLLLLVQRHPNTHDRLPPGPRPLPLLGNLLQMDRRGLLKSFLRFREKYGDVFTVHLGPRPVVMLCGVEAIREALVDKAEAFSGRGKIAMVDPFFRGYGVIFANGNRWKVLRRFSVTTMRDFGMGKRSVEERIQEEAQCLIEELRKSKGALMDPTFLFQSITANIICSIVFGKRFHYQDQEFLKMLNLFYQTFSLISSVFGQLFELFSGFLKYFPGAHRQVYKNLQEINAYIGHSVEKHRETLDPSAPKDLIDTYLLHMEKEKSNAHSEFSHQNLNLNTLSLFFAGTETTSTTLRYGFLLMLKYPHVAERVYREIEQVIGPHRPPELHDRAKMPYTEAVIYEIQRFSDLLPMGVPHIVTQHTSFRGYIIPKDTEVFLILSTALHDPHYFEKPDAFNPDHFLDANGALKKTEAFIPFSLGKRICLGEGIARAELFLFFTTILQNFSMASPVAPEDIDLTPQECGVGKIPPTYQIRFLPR

CYP2C9 = CYP2C9 (Homo sapiens, UniProt P11712); assay: CYP reaction phenotyping, recombinant supersomes
CYP3A4 = CYP3A4 (Homo sapiens, UniProt P08684); assay: biochemical
Chain of CYP3A4 (P08684 whole entry): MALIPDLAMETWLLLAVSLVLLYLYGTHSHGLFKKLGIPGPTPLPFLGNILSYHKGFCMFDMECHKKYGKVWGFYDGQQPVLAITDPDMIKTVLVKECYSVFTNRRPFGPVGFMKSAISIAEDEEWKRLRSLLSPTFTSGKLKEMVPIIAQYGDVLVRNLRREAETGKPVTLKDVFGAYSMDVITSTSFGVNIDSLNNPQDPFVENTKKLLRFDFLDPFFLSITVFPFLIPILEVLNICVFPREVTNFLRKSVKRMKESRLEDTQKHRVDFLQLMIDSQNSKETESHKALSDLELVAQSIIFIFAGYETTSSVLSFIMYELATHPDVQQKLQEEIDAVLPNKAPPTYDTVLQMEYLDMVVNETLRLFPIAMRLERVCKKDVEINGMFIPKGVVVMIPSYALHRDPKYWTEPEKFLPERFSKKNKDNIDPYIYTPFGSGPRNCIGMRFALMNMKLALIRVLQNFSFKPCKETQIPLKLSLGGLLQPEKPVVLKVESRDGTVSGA

Chain of CYP2C9 (P11712 whole entry): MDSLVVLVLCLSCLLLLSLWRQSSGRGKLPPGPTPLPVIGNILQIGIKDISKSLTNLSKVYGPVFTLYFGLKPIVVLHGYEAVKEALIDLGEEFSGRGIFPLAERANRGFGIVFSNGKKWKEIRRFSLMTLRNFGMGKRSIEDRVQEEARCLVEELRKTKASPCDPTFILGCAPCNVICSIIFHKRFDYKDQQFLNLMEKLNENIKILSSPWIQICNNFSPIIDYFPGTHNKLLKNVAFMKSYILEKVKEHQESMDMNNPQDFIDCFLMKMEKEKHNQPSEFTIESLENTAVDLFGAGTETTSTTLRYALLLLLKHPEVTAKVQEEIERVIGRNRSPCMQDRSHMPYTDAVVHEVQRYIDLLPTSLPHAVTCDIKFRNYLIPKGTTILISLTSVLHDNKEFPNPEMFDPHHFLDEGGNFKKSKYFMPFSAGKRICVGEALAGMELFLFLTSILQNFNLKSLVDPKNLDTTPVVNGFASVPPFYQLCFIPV
T2 sequence (P37231 whole entry): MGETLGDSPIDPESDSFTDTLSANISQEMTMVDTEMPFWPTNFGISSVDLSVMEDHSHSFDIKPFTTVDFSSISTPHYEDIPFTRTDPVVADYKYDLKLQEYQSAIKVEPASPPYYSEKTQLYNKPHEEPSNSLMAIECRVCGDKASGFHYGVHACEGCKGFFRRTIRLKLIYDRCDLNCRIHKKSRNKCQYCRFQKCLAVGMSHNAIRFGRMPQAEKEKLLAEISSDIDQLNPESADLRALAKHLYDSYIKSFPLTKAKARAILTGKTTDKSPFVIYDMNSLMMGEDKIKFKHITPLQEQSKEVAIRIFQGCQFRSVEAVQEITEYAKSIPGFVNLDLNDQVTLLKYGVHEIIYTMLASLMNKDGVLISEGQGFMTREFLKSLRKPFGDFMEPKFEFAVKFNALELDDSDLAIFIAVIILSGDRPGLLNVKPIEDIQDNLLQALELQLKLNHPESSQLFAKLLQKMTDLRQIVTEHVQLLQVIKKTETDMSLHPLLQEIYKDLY
T1 sequence (P41595 whole entry): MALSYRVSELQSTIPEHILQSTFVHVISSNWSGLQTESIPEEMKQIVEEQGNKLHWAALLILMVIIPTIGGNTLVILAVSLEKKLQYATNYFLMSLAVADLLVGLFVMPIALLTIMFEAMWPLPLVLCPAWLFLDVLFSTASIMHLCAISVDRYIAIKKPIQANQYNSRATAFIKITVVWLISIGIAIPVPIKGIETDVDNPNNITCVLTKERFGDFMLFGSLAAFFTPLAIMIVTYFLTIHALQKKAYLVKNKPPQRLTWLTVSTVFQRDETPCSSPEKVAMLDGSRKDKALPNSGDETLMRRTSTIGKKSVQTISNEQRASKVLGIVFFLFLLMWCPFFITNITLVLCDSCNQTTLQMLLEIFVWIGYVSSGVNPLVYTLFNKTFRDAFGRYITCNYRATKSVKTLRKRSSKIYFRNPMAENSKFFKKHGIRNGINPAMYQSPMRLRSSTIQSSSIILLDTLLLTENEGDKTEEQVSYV

For `CC1(C)Cn2nc(-c3ccc4cc(OC5CC5)ccc4c3)c(C(N)=O)c2NC1O` (stereo not shown) [M2], the “concentration up to which zebrafish embryo development was not affected” value (zebrafish embryos) was 20 µM, the “M2 AUC0-inf” value (Mouse PK, IFNγ-KO BL6; after BKI-1708 IV 3 mg/kg) was 792 ± 18 µmol·min/L and the “M2 AUC0-inf” value (Mouse PK, IFNγ-KO BL6; after BKI-1708 PO 15 mg/kg) was 5948 ± 1398 µmol·min/L. The inhibition at 10 µM (5-HT2B) was 57.1%, the “M2 AUC0-inf” value ([1]; after BKI-1708 IV 1 mg/kg) was 63 ± 9 µmol·min/L and the “M2 AUC0-inf” value ([1]; after BKI-1708 PO 1 mg/kg) was 58 ± 13 µmol·min/L. For the same molecule, the fraction unbound [2] was 0.1, the “% inhibition of control specific binding” value (PPARγ; 10 μM) was 70.1% and the inhibition at 10 µM (PPARγ; read-out: % inhibition of control specific binding) was 70%. It also gave an EC50 (C. hominis TU502 isolate) of 440 nM, an EC90 (C. hominis TU502 isolate) of 1670 nM and an EC50 (C. hominis TU502 isolate; read-out: TU502 C. hominis Count EC50, Replicate 1) of 458 nM. It also gave an EC50 (C. hominis TU502 isolate; read-out: TU502 C. hominis Count EC50, Replicate 2) of 428 nM, an EC90 (C. hominis TU502 isolate; read-out: TU502 C. hominis Count EC90, Replicate 1) of 1930 nM and an EC90 (C. hominis TU502 isolate; read-out: TU502 C. hominis Count EC90, Replicate 2) of 1410 nM. For the same molecule, the inhibition at 10 µM (A3) was 72.6%, the “M2 peak level in jejunum, ileum, cecum/colon” value [3] was greater than 1 µM and the “% contribution” value (CYP2B6) was 5.1%. For the same molecule, the CLint (CYP2B6) was 0.044 µL/min/pmol, the “% contribution” value (CYP2C9) was 0.0% and the CLint (CYP2C9) was less than 0.029 µL/min/pmol. It also gave an IC50 (CYP3A4) greater than 40000 nM.
